# Results published in a melting point compilation (Tetko et al.; mined from patent text by program, amines drawn as free bases though some values may be those of a salt).
row,Structure (SMILES),melting point
1,ON=C1c2ccccc2CCC1Br (stereo unspecified),125 to 131 °C
2,C=CC(=O)N1C(C)(C)CC(=C2CC(C)(C)N(C(=O)C=C)C(C)(C)C2)CC1(C)C,196 to 198 °C
3,CCCCc1ncc(/C=C/CC(=O)O)n1Cc1ccccc1Cl,135 to 137 °C
4,CC(=O)Nc1ccc(C(=O)Nc2ccccc2NC(=O)CNC(=O)OC(C)(C)C)cc1,125 to 126 °C
5,Cc1cc2c(c(C)c1Br)C(c1ccccc1)CO2 (stereo unspecified),135 to 136 °C
6,N#Cc1cc(C#N)cc(Oc2nccc(Oc3cc(Cl)cc(Cl)c3)n2)c1,156 °C
7,O=c1[nH]c2ccccc2c2c(CCN3CCN(Cc4ccccc4)CC3)n(-c3ccccc3)nc12,211 to 212 °C
8,CNc1ccc(C(=O)c2ccccc2)cc1[N+](=O)[O-],198 to 201 °C
9,Cc1c(Nc2c(I)cncc2C#N)ccc2[nH]ccc12,192 to 194 °C
10,C[C@@H]1O[C@](C#CC2CC2)(C(F)(F)F)c2c(ccc(F)c2F)NC1=O (relative stereo),219 to 220 °C
11,NC(=O)CCCCCc1cccc2cncn12,131 to 132 °C
12,Cc1ccc(S(=O)(=O)NC(CSCC(=O)O)C(=O)O)cc1 (stereo unspecified),152 °C
13,O=C(O)CCNC(=O)C(=Cc1ccc(-c2ccccc2)cc1)CS,125 °C
14,CC(NC(=O)Cc1cc(F)cc(F)c1)C(=O)NC1C(=O)N(C)C(c2ccccc2)c2ccccc21 (stereo unspecified),115 °C
15,CCCCN(Cc1ccc(-c2ccccc2-c2nnnn2C(c2ccccc2)(c2ccccc2)c2ccccc2)cc1)c1cc(C)nc(C)n1,125 to 127 °C
16,C1=Cc2ccc3c(c2CC1)=C1CC=c2ccccc2=C1N=3,218 °C
17,CCOC(C)O[C@H]1C(=O)N(C(=S)Nc2ccccc2)[C@H]1c1ccccc1 (stereo partly specified),108 to 112 °C
18,COC(=O)C(Cc1ccc(OCCn2ccc3ccc(C(=O)C4CC4)nc32)cc1)OCC(F)(F)F (stereo unspecified),123 °C
19,COc1ccc2c(c1)C(CCNC(=O)C(F)(F)F)=C(Cc1ccccc1)C2,126 to 128 °C
20,Cc1ccc(-c2cnc(C#Cc3ccc(C)s3)s2)cc1,101 to 103 °C
21,CCCNC(=O)C(C)(C)n1cc(C)c(-c2ccccc2)n1,47 to 50 °C
22,CCCCCCCCCCCCNc1ccnc(Cl)n1,80 to 82 °C
23,CC(C)c1ccc(NC(=O)C(F)(F)F)cc1,98 °C
24,CSCc1cc(C(F)(F)F)ccc1N,65.5 to 67.5 °C
25,CCCCCCCCc1ccc(OC(=O)c2ccc([C@H]3CC[C@H](CCC)C3)cc2)cc1 (relative stereo),36 °C
26,NS(=O)(=O)c1ncccc1SCCCF,85 to 86 °C
27,CC#CCOc1cc(OCC#CC)ncn1,82.9 °C

row,Structure (SMILES),melting point
1,CC(C)C(NS(=O)(=O)c1ccc(Cl)cc1)C(=O)Nc1ccc(CC(=O)O)cc1 (racemic),228 to 230 °C
2,Cc1ccc(CNc2nc(Nc3cccc(C(F)(F)F)c3)nc(OCC(F)(F)F)n2)o1,72 to 74 °C
3,COC(=O)C(CCCCNC(=O)c1ccc(NC(=O)OCc2ccccc2)cc1)n1c2ccccc2c2ccccc21 (stereo unspecified),87 to 88 °C
4,NC(=O)c1cc(NCc2ccccc2)c([N+](=O)[O-])cc1[N+](=O)[O-],143 to 146 °C
5,CC(C)CC(=O)Nc1cccc(-c2ccnc3c(C(=O)C4CCCC4)cnn23)c1,69 to 71 °C
6,CC(C(N)=O)c1ccc2c(c1)Sc1ncccc1CC2=O (stereo unspecified),161 to 162 °C
7,CCCCCCCCCCCc1coc(NC(=O)Nc2c(C(C)C)cccc2C(C)C)n1,104 to 108 °C
8,Cn1c(CO)c(-c2ccc(F)cc2)c2ccccc21,99 to 104 °C
9,CCCC=CCC1CC(=O)N(c2cc(Cc3n[nH]c(=O)c4ccccc34)ccc2F)C1=O (stereo unspecified),146 to 149 °C
10,OCCNCCNc1nnc(NCCNCCO)c2cc3ccccc3cc12,129 to 131 °C
11,CC(Cc1ccc(O)cc1)NCC(O)c1cccc(Cl)c1 (stereo unspecified),50 to 55 °C
12,O[C@@H]1c2ccccc2C=C[C@H]1NCc1ccccc1 (relative stereo),125 to 126 °C
13,Cc1oc(C(C)(C)C)nc1CCl,41 to 44 °C
14,Clc1nnc(Cl)c2sccc12,260 to 263 °C
15,O=S(=O)(CCl)c1ncc(Cl)cn1,100 °C
16,O=C(/C=C/c1c[nH]c2ccccc12)c1ccccc1,167 to 170 °C
17,O=[N+]([O-])c1ccc(NCC23CCCN2CCC3)c2ccccc12,143 to 144 °C
18,O=C(Cn1c(-c2ccc(Cl)cc2)nc2cccnc21)N(c1ccccc1)c1ccccc1,176 to 178 °C
19,CC(=O)NC(C)C(=O)Nc1ccc2[nH]cc(C(=O)O)c(=O)c2c1 (stereo unspecified),196 to 200 °C
20,N#Cc1c(N)[nH]c2ccc(Sc3ccc(O)cc3)cc12,241 to 242 °C
21,CC(C)(O)Cc1cc(O)ccc1Br,139 to 141 °C
22,Cc1ccc(CNC(=O)c2ccc3n2Cc2ccccc2N(C(=O)CSc2ccc(Br)cc2)C3)cc1,131 to 132 °C
23,CC(=O)c1ccc2oc3ncccc3c(=O)c2c1,195 to 196 °C
24,CC/C=C/CNc1cccc(-c2ccnc3c(C(=O)c4cccs4)cnn23)c1,72 to 75 °C
25,OC(c1ccc(F)cc1)C1(n2cncn2)CC1 (stereo unspecified),104 to 106 °C
26,Cc1ccc([C@@H]2Sc3cc(COC(c4ccccc4)(c4ccccc4)c4ccccc4)ccc3N(CCN(C)C)C(=O)[C@@H]2O)cc1,110 to 114 °C

# The next lines start with the values.
row,melting point,Structure (SMILES)
1,71 to 72 °C,Cc1ncc(C(=O)N2CCCC2)s1
2,151 to 152 °C,CCC(OC)C(=O)Nc1ccc(C2=NNC(=O)CC2C)cc1 (stereo unspecified)
3,180 to 184 °C,C=C(CN(C)C)C(O)c1ncc2c(c1O)COC2c1cccc(Cl)c1Cl (stereo unspecified)
4,200 to 201 °C,COc1cc(O)c2c(c1O)CC(C)=C(C)C2
5,117 °C,Cc1cc(OCCc2nc(-c3ccccc3)oc2C)ccc1OC(C)(C)C(=O)O
6,210 to 212 °C,COc1ccc(Cc2cnc(N)nc2N)cc1OCc1ccccc1
7,160 to 162 °C,COc1ccc2nc(-c3cc(C)c(OCCO)c(C)c3)n(-c3ccc(Br)cc3)c(=O)c2c1
8,112 to 114 °C,O=C1CCCCCC1n1nc(-c2c(-c3ccccc3)nn3ccccc23)ccc1=O (stereo unspecified)
9,223 to 225 °C,CC(C)CC(=O)Nc1cccc(-c2ccnc3c(-c4cc(Cl)cc(Cl)c4)cnn23)c1
10,72 to 73 °C,Cn1c(CCNC2CCN(Cc3ccccc3)CC2)cc2ccccc21
11,206 °C,CC(=O)Nc1ncc(S(=O)(=O)NC(C)(C)CO)s1
12,80 °C,C=C(C1=C(CCC(=O)OC)C(=O)CC1O)c1ccccc1 (stereo unspecified)
13,128 to 141 °C,COc1cc2c(cc1Nc1ncc(Cl)c(N[C@@H]3CCCC[C@H]3NS(C)(=O)=O)n1)CCN(C(=O)CN(C)C)CC2
14,183 to 184 °C,COC(=O)c1ccc(O)c(C23CC4CC(CC(C4)C2)C3)c1
15,111 to 112 °C,C[C@]1(CN2CCC(Cc3ccc(OC(F)(F)F)cc3)CC2)Cn2cc([N+](=O)[O-])nc2O1
16,112 °C,Cc1cc([C@H]2CN3C(=O)N(c4cc(Cl)nc(Cl)c4)C(=O)[C@]3(Cc3ccc(OC(F)(F)F)cc3)C2)c(C)[nH]1
17,116 to 117 °C,Cn1nc(-c2cc(S(=O)(=O)Cl)c(Cl)cc2F)c(Cl)c1C(F)(F)F
18,243 to 245 °C,COc1cccc2c(-c3ccnc(N[C@H]4CC[C@H](O)CC4)n3)n[nH]c12
19,123 to 126 °C,COc1cc(OC)nc(C2(C#N)OC(=O)c3c(Cl)ccc(Cl)c32)n1 (stereo unspecified)
20,156 to 160 °C,COc1c(C=Cc2ccc(C=CC3=C(C#N)C(=C(C#N)C#N)OC3(c3ccccc3)C(F)(F)F)s2)cc2c3c1CCCN3CCC2 (stereo unspecified)
21,149 to 153 °C,CCC1(F)CN(C2CCCC2)c2nc(Nc3ccc(C(=O)NC4CCN(C)CC4)cc3OC)ncc2N(C)C1=O (stereo unspecified)
22,250 to 255 °C,CC1Sc2c(C(=O)O)c(=O)c3cc(Cl)c(N4CCN(C)CC4)cc3n21 (stereo unspecified)

row,melting point,Structure (SMILES)
1,150 °C,CC(=O)N1CCc2nc3cccc(N)c3c(C)c2CC1
2,230 to 233 °C,COc1ccccc1NC(=O)Nc1nc(Oc2ccc3ccccc3c2)nc(N(CCC(=O)O)Cc2cccc3ccccc23)n1
3,129 to 130 °C,COCOc1ccccc1-c1cc(-c2cccc(C(=O)OC)c2)c(C#N)c(N)n1
4,253 to 255 °C,CCCc1[nH]c2cc(C(N)=O)ccc2c1C(=O)C1CCC1
5,100 to 102 °C,Cc1ccc(S(=O)(=O)OCC2CCc3cc(C#N)ccc3C2)cc1 (stereo unspecified)
6,184 to 185 °C,COc1ccc(N(C)C(=O)CN2C(=O)c3ccccc3C2=O)c(OC)c1COc1cccc2ccc(C)nc12
7,175 to 178 °C,COc1cc(OC)nc(NC(=O)NS(=O)(=O)c2ccccc2-c2cnoc2)n1
8,125 to 135 °C,Cc1noc(NS(=O)(=O)c2ccccc2-c2ccc(-c3ncco3)cc2CN(C)C(=O)c2ccccc2Cl)c1C
9,108 to 110 °C,Cc1cc(C(=O)N(C(C)C)C(C)C)ccc1[N+](=O)[O-]
10,235 to 237 °C,O=C1CCCc2[nH]c3ccc(OCc4ccccc4)cc3c21
11,179 to 180 °C,O=C(N1CCC(N2CCOCC2)CC1)C12CC(c3ccccc31)c1ccccc12
12,138 to 139 °C,CC(C)N[C@@H]1CCc2c(ccc(OCc3ccccc3)c2CO)[C@H]1O (relative stereo)
13,127 °C,COC(=O)CCc1cc2nc(Cl)ccc2n1S(=O)(=O)c1cc(OC)ccc1OC
14,121 to 122 °C,CC(C)(C)c1ccc(C(O)CCCCC2CCCCC2)cc1C(C(N)=O)C1c2ccccc2Oc2ccccc21 (stereo unspecified)
15,105 to 110 °C,COc1ccc(S(=O)(=O)N2Cc3ccccc3N(C(=O)c3cccc(C(F)(F)F)c3)CC2C(=O)O)cc1 (stereo unspecified)
16,124 to 126 °C,COc1ncc(NS(=O)(=O)c2cccc(Cl)c2Cl)c(OC)n1
17,130 to 132 °C,COc1ccccc1NS(=O)(=O)c1cccc([N+](=O)[O-])c1
18,170 to 171 °C,COC(=O)Cc1nc2cc(OC)c(OC)cc2c(-c2ccc(OC)c(OC)c2)c1C(=O)OC
19,70 to 72 °C,O=C(Nc1ccc(OCCCN2CCC3(CC2)OCCO3)c2ccccc12)c1cc(F)cc(N2CCCCC2)c1
20,152 °C,COC[C@@H]1CC[C@H](c2ccc(F)cc2)N1S(=O)(=O)c1ccc(C)cc1 (racemic)
21,159 to 162 °C,Cc1c(-c2ccccc2)c(N2CC[C@H](N(C)C)C2)c2oc(-c3ccccc3O)nc2c1C#N
